The test system of data set [1] is G. stearothermophilus C953 (DSM 1550). Description: BRT microbial test system with additives in the growth medium, G. stearothermophilus indicator strain. The format is cell-based. Particulars: for longer incubation time until complete discoloration of the negative control: additive in growth medium: 200 µg/l CIP, 150 µg/l MOX, versus control plates. As for the experimental part:
(§1) The medium was prepared with one additive each. The evaluation of an increase in sensitivity and incubation time until complete discoloration of the negative control was performed by comparison with corresponding control medium, spore suspensions from the same batches and an equivalent number of spores.
(§2) Microbial test systems were prepared according to methods L 01.01-5 (January 2012) and L 01.00-11 (December 2002) ASU. 6.85 g BRT basis medium comprising about 1.5 g/l meat extract, about 3.0 g/l yeast extract, about 4.0 g/l casein peptone, about 6.0 g/l meat peptone, about 1.0 g/l D(+)-glucose, about 10 ml/l trimethoprim solution, and about 10 to […] dissolved in 250 ml distilled water and autoclaved.
(§3) The medium was tempered to 65 °C. 6.25 ml of sterile-filtered brilliant black solution (4 mg/ml, in dist. aqua) and medium additives and the spore suspension was added. The volume of spore suspension to be used was calculated on the basis of the desired spore number [cfu/ml] and the determined spore number of the spore suspension. The spore suspension was adjusted to a volume corresponding to 0.4 to 6 % v/v of the growth medium by dilution in Ringer's solution or by centrifugation (6,000 × g, RT, 10 min).
(§4) 100 µl growth medium per well was aliquoted into 96-well microtiter plates, the test system plates were solidified under the sterile bench for at least 30 min, the test system plates were sealed with adhesive foil and stored at 4 °C with the bottom surface facing upwards.

Data set [2] shares this test system. Nature of the data set: microbe, parasite or virus in culture. The conditions noted are these: Geobacillus stearothermophilus, DSM1550.
Data set [3] relates to A. pallidus MHI 3391. Description: BRT microbial test system with additives in the growth medium, A. pallidus indicator strain. Particulars: for incubated longer than corresponding control plates: additive in growth medium: 100 µg/l CIP, 100 µg/l MOX; for Concentrations detected in spiked milk samples: growth medium with 100 µg/l MOX. In kind it is cell-based. As for the experimental part: as §1, §2, §3, §4

In data set [4] the test system is A. pallidus MHI 3391. Nature of the data set: microbe, parasite or virus in culture.
For data set [5], the system named is A. pallidus MHI 3391. Description: FQ-BRT test system, detection of inhibitors in spiked milk samples. The format is cell-based. Particulars: for detection at the detection level: incubation extended by two hours; for Detection at concentration: plates incubated for additional four hours relative to discoloration time of the negative control; for test result in the FQ-BRT: spiked milk samples at concentrations at the level of the respective MRL. As for the experimental part: A. pallidus MHI 3391 was used as the indicator bacteria, endospores were used with a spore count of 1.56 × 10^7 cfu/ml growth medium, the growth medium used was based on BRT basis medium comprising a brilliant black concentration of 100 mg/l, 100 µg/l MOX and 8000 µg/l 8-hydroxyquinoline, adjusted to a pH of 8.5. In the following, this test system will be referred to as FQ-BRT. The incubation of the FQ-BRT was carried out in a water bath at 61 ± 1 °C.
The detection limits determined during the photometric and visual evaluation of test plates are shown in Figure 8 based on positive and negative control (CCβ A and CCβ B) derived from quality curves generated using the logistic regression model.
Discoloration of the negative control on test plates of the FQ-BRT using an UHT milk negative control was observed after an incubation of 302 ± 35 min.

The conditions of data set [6]: milk samples, after heating for 20 min at 120 °C; cited from earlier work.
The subject of data set [7] is A. thermoaerophilus MHI 3397. Description: BRT test system with Ca-DPA-activated spore suspensions. In kind it is cell-based. Particulars: Ca-DPA-activated spores versus control plates. As for the experimental part:
(§5) 120 mM DPA stock solution was prepared in Tris-base and diluted in a 20-80 mM CaCl2 solution to obtain a Ca-DPA working solution before use. A spore suspension was adjusted to a specific spore count of 1.56 × 10^7 cfu/ml and a Ca-DPA concentration of 40 mM with Ca-DPA working solution and Ringer's solution. The spore suspension was incubated for 3 h in a thermal shaker at 55 °C and 350 rpm.

In data set [8] the test system is A. pallidus MHI 3390. The data set is described as above. The format is cell-based. Particulars: Ca-DPA-activated spores versus control plates. As for the experimental part: as §5
Data set [9] deals with A. pallidus MHI 3391. The description is as above. In kind it is cell-based. The conditions noted are these: Ca-DPA-activated spores versus control plates. As for the experimental part:
as §5

Data set [10] concerns G. stearothermophilus C953 (DSM 1550). Described as above. Particulars: Ca-DPA-activated spores versus control plates. In kind it is cell-based. As for the experimental part:
as §5

The test system of data set [11] is B. thermoamylovorans MHI 3373. The data set is described as above. In kind it is cell-based. Particulars: Ca-DPA-activated spores versus control plates without Ca-DPA activation. As for the experimental part: as §5
Where [12] appears, read: 8-hydroxyquinoline at 250, 500, 1000, 2000 and 4000 µg/l in basic growth medium.

≈ marks a conversion by molar mass, not a printed value.

On to `Oc1cccc2cccnc12` [8-hydroxyquinoline], for which the “improvement in detection sensitivity” value in [1] (setting [12]) and in [3] (setting [12]) was “no improvement in detection sensitivity” throughout. For the same compound, the “reduction in incubation time” value in data set [1] (addition of 8-hydroxyquinoline) was “not observed”. Besides, the MIC came to 4 µg/mL (≈ 27.6 µM) in [2] and 8 µg/mL (≈ 55.1 µM) in data set [4]. In addition, the results for the “Incubation time reduced by” value in data set [3] (8000 µg/l 8-hydroxyquinoline added to growth medium comprising 100 µg/l MOX), in data set [3] (addition of 2000 µg/l 8-hydroxyquinoline to basic growth medium) and in data set [3] (addition of 4000 µg/l 8-hydroxyquinoline to basic growth medium) were 70 ± 16 min, 66 ± 0 min and 94 ± 7 min, respectively. In addition, the “decrease in incubation time” value in data set [3] (combination of 8000 µg/l 8-hydroxyquinoline and 100 µg/l CIP) is 17 ± 4 min.
Consider `O=C(O)c1cn(C2CC2)c2cc(N3CCNCC3)c(F)cc2c1=O` [CIP, ciprofloxacin], for which the “effect of addition to growth medium on detection sensitivity” value in data set [1] (additive in growth medium: 50 µg/l CIP, 75 µg/l MOX, 100 µg/l LEV) is “not associated with an increased sensitivity”. Besides, in data set [1], the “longer incubation time until complete discoloration of the negative control” value is 32 ± 10 min. In [1] (growth medium comprising 100 or 200 µg/l CIP, 100, 125 or 150 µg/l MOX, or 200 µg/l LEV), the “concentration detected in spiked milk samples” value amounted to 200 µg/kg. Further, in data set [5], the “detection at the detection level” value is 100 µg/kg and the Detection at concentration is 50 µg/kg. For the same compound, in data set [3], the “incubated longer than corresponding control plates” value came out at 17 ± 7 min and the “Concentrations detected in spiked milk samples” value (from here on “Concentrations detected”) turned out to be 50 µg/kg. The concentration detected in data set [3] (growth medium with addition of 100 µg/l CIP) is on record as 100 µg/kg.
As for `CN1C[C@@H]2C[C@H]1CN2c1cc2c(cc1F)c(=O)c(C(=O)O)cn2C1CC1` [DAN, danofloxacin], in data set [3], the “Concentrations detected” value was 120 µg/kg.
`CCN1CCN(c2cc3c(cc2F)c(=O)c(C(=O)O)cn3C2CC2)CC1` [ENR, enrofloxacin]: the degradation in data set [6] is given as 5%. In addition, in [5], the “detection at the detection level” value stood at 100 µg/kg and the Detection at concentration is reported as 100 µg/kg. Besides, the “Concentrations detected” value in data set [3] came to 100 µg/kg.
Turning to `CN1CCN(c2c(F)cc3c(=O)c(C(=O)O)cn4c3c2OCN4C)CC1` [MAR, marbofloxacin], in data set [5] (incubation extended by three hours), the detection sensitivity is on record as 100 µg/kg. Besides, the “detection at the detection level” value in data set [5] came to 75 µg/kg. In addition, in data set [3], the “Concentrations detected” value was found to be 75 µg/kg.
Take `COc1c(N2C[C@@H]3CCCN[C@@H]3C2)c(F)cc2c(=O)c(C(=O)O)cn(C3CC3)c12` [MOX, moxifloxacin]: in data set [1], the “longer incubation time until complete discoloration of the negative control” value was determined as 18 ± 0 min. Further, in data set [3], the “incubated longer than corresponding control plates” value was 62 ± 31 min.
As for `CCN1CCN(C(=O)N[C@@H](C(=O)N[C@@H]2C(=O)N3C(C(=O)O)=C(CSc4nnnn4C)CS[C@H]23)c2ccc(O)cc2)C(=O)C1=O` [cefoperazone], the “test result in the FQ-BRT” value in data set [5] is on record as “intermediate test results”.
The same measure, in the same setting: as for `CO/N=C(\C(=O)N[C@@H]1C(=O)N2C(C(=O)[O-])=C(C[n+]3cccc4c3CCCC4)CS[C@H]12)c1csc(N)n1` [cefquinome], the entry is “intermediate test results”; as for `Cc1onc(-c2c(Cl)cccc2Cl)c1C(=O)N[C@@H]1C(=O)N2[C@@H]1SC(C)(C)[C@@H]2C(=O)O` [dicloxacillin], “intermediate test results”; as for `CCOc1ccc2ccccc2c1C(=O)N[C@@H]1C(=O)N2[C@@H]1SC(C)(C)[C@@H]2C(=O)O` [nafcillin], “intermediate test results”.
The same measure, in the same setting: as for `Cc1onc(-c2ccccc2)c1C(=O)N[C@@H]1C(=O)N2[C@@H]1SC(C)(C)[C@@H]2C(=O)O` [oxacillin], the entry is “intermediate test results”; as for `CC[C@H]1OC(=O)C[C@@H](O)[C@H](C)[C@@H](O[C@@H]2O[C@H](C)[C@@H](O[C@H]3C[C@@](C)(O)[C@@H](O)[C@H](C)O3)[C@H](N(C)C)[C@H]2O)[C@@H](CC=O)C[C@@H](C)C(=O)/C=C/C(C)=C/[C@@H]1CO[C@@H]1O[C@H](C)[C@@H](O)[C@@H](OC)[C@H]1OC` [tylosin], “positive test result”.
calcium dipicolinic acid [Ca-DPA]: in [7], the “effect on incubation duration” value is recorded as “No effect on incubation duration”. Also, the “increase in incubation time, mean difference” value in [8] is 139 ± 29 min; in data set [9] it was 164 ± 52 min; in data set [10] it was 139 ± 42 min. For the same compound, in [11], the shorter incubation time was 23 ± 2 min.
Regarding gentamicin, the “test result in the FQ-BRT” value in data set [5] is “positive test result”.
On to neomycin, for which the “test result in the FQ-BRT” value in data set [5] is “positive test result”.

The record behind these values is EP4159870A1, “SYSTEM FOR THE DETECTION OF INHIBITORS IN MILK” (Analytik in Milch Produktions- und Vertriebs-GmbH, priority 2021, dated 2023).
